# From ChEMBL document CHEMBL4842339, “8-Hydroxyquinolin-2(1H)-one analogues as potential β2-agonists: Design, synthesis and activity study” (Eur J Med Chem, 2021)
# Legend:
# [1] = target: Beta-2 adrenergic receptor (Homo sapiens, UniProt P07550); assay: Agonist activity at human beta2 adrenoreceptor overexpressed in HEK293 cells assessed as cAMP accumulation; assay type: functional, cell-based
# [2] = […] agonist activity at beta2 adrenergic receptor isolated from guinea pig tracheal smooth muscle assessed as inhibition of histamine-induced tracheal smooth muscle contraction by measuring maximal relaxant effect relative to control; assay type: functional; details: Cavia porcellus
# Cavia porcellus [3] = species: Cavia porcellus; assay: Myorelaxant effect in guinea pig model of histamine-induced smooth muscle contraction assessed as time duration of action measured over 12 hrs; assay type: functional; details: time hrs >12
# Cavia porcellus [4] = species: Cavia porcellus; assay: Myorelaxant effect in guinea pig model of histamine-induced smooth muscle contraction assessed as time of onset of action measured over 12 hrs; assay type: functional
# [5] = […] agonist activity at beta2 adrenergic receptor isolated from guinea pig tracheal smooth muscle assessed as inhibition of histamine-induced tracheal smooth muscle contraction; assay type: functional, Cavia porcellus
# [6] = target: Beta-1 adrenergic receptor (Homo sapiens, UniProt P08588); assay: Agonist activity at human beta1 adrenoreceptor overexpressed in HEK293 cells assessed as cAMP accumulation; assay type: functional, cell-based
# Sequence of Beta-1 adrenergic receptor (P08588 whole entry): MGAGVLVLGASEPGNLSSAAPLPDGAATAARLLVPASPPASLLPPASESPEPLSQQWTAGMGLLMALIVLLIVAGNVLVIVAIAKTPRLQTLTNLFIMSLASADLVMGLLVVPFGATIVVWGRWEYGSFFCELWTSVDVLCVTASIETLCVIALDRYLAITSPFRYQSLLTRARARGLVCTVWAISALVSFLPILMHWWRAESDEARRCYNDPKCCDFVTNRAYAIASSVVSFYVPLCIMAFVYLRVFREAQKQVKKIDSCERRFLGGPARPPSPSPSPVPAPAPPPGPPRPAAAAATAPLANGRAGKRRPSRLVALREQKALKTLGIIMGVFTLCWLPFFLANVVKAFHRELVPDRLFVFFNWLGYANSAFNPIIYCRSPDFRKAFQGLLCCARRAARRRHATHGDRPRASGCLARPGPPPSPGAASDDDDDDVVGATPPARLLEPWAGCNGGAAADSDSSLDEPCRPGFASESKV
# Sequence of Beta-2 adrenergic receptor (P07550 whole entry): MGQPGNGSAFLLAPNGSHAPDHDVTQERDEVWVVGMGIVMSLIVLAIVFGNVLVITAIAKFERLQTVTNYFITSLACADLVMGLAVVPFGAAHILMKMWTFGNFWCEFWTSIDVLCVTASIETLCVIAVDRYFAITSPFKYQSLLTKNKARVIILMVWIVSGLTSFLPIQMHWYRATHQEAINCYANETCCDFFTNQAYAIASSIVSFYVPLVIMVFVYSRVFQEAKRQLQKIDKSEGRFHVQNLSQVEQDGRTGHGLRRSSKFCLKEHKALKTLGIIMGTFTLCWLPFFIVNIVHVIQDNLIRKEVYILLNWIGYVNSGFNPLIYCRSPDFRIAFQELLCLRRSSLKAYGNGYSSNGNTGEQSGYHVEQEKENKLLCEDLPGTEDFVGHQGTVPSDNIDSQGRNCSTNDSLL
smiles,measurement,setting,value
O=c1ccc2c(C(O)CNCCCc3cccc(F)c3)ccc(O)c2[nH]1 (stereo unspecified),EC50,[1],0.0245 nM
CC(CCc1cccc(Cl)c1)NCC(O)c1ccc(O)c2[nH]c(=O)ccc12 (stereo unspecified),Emax,[2],105%
same,EC50,[1],0.0724 nM
COc1ccccc1CC[C@@H](C)NC[C@H](O)c1ccc(O)c2[nH]c(=O)ccc12,EC50,[1],0.0288 nM
CC(C)(CCc1cccc(Cl)c1)NCC(O)c1ccc(O)c2[nH]c(=O)ccc12.Cl (stereo unspecified),Time,Cavia porcellus [3],>12 h
same,Time,Cavia porcellus [4],3.43 min
COc1cccc(CCC(C)NCC(O)c2ccc(O)c3[nH]c(=O)ccc23)c1.Cl (stereo unspecified),pD2,[5],7.33
same,Emax,[2],196%
same,EC50,[6],2.57 nM
same,Time,Cavia porcellus [3],>12 h
same,Time,Cavia porcellus [4],4.97 min
same,EC50,[1],0.0214 nM
Cc1cccc(CCCNCC(O)c2ccc(O)c3[nH]c(=O)ccc23)c1.Cl (stereo unspecified),pD2,[5],7.66
same,Emax,[2],144%
same,EC50,[6],14.5 nM
same,EC50,[1],0.038 nM
CC(C)NCC(O)c1ccc(O)c(O)c1 (stereo unspecified) [ISOPROTERENOL],Emax,[2],181%
same,Time,Cavia porcellus [4],3.1 min
CC(C)(CCc1cccc(O)c1)NCC(O)c1ccc(O)c2[nH]c(=O)ccc12.Cl (stereo unspecified),pD2,[5],6.37
same,Emax,[2],103%
same,EC50,[6],2.4 nM
same,EC50,[1],0.0182 nM
O=c1ccc2c(C(O)CNCCCc3cccc(C(F)(F)F)c3)ccc(O)c2[nH]1 (stereo unspecified),EC50,[1],0.0282 nM
Cc1cccc(CCC(C)NCC(O)c2ccc(O)c3[nH]c(=O)ccc23)c1 (stereo unspecified),EC50,[6],4.07 nM
Cc1ccccc1CCCNCC(O)c1ccc(O)c2[nH]c(=O)ccc12.Cl (stereo unspecified),pD2,[5],7.72
same,Emax,[2],125%
same,EC50,[6],17 nM
same,EC50,[1],0.0575 nM
Cc1ccc(CCC(C)NCC(O)c2ccc(O)c3[nH]c(=O)ccc23)cc1.Cl (stereo unspecified),pD2,[5],7.58
same,Emax,[2],95.9%
same,EC50,[6],10.5 nM
same,EC50,[1],0.038 nM
CC(CCc1cccc(O)c1)NCC(O)c1ccc(O)c2[nH]c(=O)ccc12 (stereo unspecified),EC50,[1],0.0135 nM
Cc1ccc(CCCNCC(O)c2ccc(O)c3[nH]c(=O)ccc23)cc1 (stereo unspecified),EC50,[1],0.0955 nM
COc1ccccc1CCC(C)NCC(O)c1ccc(O)c2[nH]c(=O)ccc12 (stereo unspecified),EC50,[1],0.0148 nM
Cl.O=c1ccc2c(C(O)CNCCCc3ccc(F)cc3)ccc(O)c2[nH]1 (stereo unspecified),pD2,[5],7.39
same,Emax,[2],153%
same,EC50,[6],16.2 nM
same,EC50,[1],0.0468 nM
Cc1ccc(CCC(C)(C)NCC(O)c2ccc(O)c3[nH]c(=O)ccc23)cc1 (stereo unspecified),EC50,[6],24.5 nM
CC(CCc1cccc(F)c1)NCC(O)c1ccc(O)c2[nH]c(=O)ccc12 (stereo unspecified),Emax,[2],163%
same,EC50,[6],3.09 nM
COc1ccccc1CCC(C)(C)NCC(O)c1ccc(O)c2[nH]c(=O)ccc12 (stereo unspecified),Emax,[2],141%
same,EC50,[1],0.0224 nM
Cc1cccc(CCC(C)(C)NCC(O)c2ccc(O)c3[nH]c(=O)ccc23)c1 (stereo unspecified),Emax,[2],152%
same,EC50,[6],2.63 nM
Cc1ccccc1CCC(C)NCC(O)c1ccc(O)c2[nH]c(=O)ccc12 (stereo unspecified),EC50,[6],6.76 nM
CC(C)(CCc1ccccc1Cl)NCC(O)c1ccc(O)c2[nH]c(=O)ccc12 (stereo unspecified),Emax,[2],124%
same,EC50,[6],1.74 nM
COc1cc(CCCNCC(O)c2ccc(O)c3[nH]c(=O)ccc23)cc(OC)c1OC.Cl (stereo unspecified),pD2,[5],7.74
same,Emax,[2],111%
same,EC50,[6],10000 nM
same,EC50,[1],0.0832 nM
COc1cc(CCC(C)NCC(O)c2ccc(O)c3[nH]c(=O)ccc23)cc(OC)c1OC (stereo unspecified),Emax,[2],141%
same,EC50,[6],35.5 nM
CC(CCc1ccc(F)cc1)NCC(O)c1ccc(O)c2[nH]c(=O)ccc12 (stereo unspecified),Emax,[2],100%
same,EC50,[1],0.0282 nM
CC(CCc1ccccc1Cl)NCC(O)c1ccc(O)c2[nH]c(=O)ccc12.Cl (stereo unspecified),pD2,[5],7.87
same,Emax,[2],95.3%
same,EC50,[6],4.57 nM
same,EC50,[1],0.0339 nM
Cc1ccccc1CCC(C)(C)NCC(O)c1ccc(O)c2[nH]c(=O)ccc12 (stereo unspecified),EC50,[1],0.0178 nM
COc1ccc(CCC(C)NCC(O)c2ccc(O)c3[nH]c(=O)ccc23)cc1.Cl (stereo unspecified),pD2,[5],7.48
same,Emax,[2],104%
same,EC50,[6],44.7 nM
same,EC50,[1],0.0182 nM
COc1ccc(CC(C)(C)NC[C@H](O)c2cc(O)cc3c2OCC(=O)N3)cc1 [OLODATEROL],Emax,[2],170%
same,EC50,[6],123 nM
same,Time,Cavia porcellus [4],2.31 min
O=c1ccc2c(C(O)CNCCCc3cc(F)cc(F)c3)ccc(O)c2[nH]1 (stereo unspecified),EC50,[1],0.0214 nM
OCc1cc(C(O)CNCCCCCCOCCCCc2ccccc2)ccc1O (stereo unspecified) [SALMETEROL],Emax,[2],172%
same,Time,Cavia porcellus [4],4.23 min
CC(CCc1ccc(Cl)cc1)NCC(O)c1ccc(O)c2[nH]c(=O)ccc12 (stereo unspecified),EC50,[6],6.31 nM
COc1cccc(CCC(C)(C)NCC(O)c2ccc(O)c3[nH]c(=O)ccc23)c1 (stereo unspecified),Emax,[2],112%
same,EC50,[6],7.59 nM
COc1ccc(CCC(C)(C)NCC(O)c2ccc(O)c3[nH]c(=O)ccc23)cc1.Cl (stereo unspecified),pD2,[5],7.86
same,Emax,[2],161%
same,EC50,[6],7.76 nM
same,EC50,[1],0.0309 nM
CC(CCc1ccc(O)cc1)NCC(O)c1ccc(O)c2[nH]c(=O)ccc12 (stereo unspecified),Emax,[2],71.3%
same,EC50,[1],0.0107 nM
